In paper PMC8048867 (Chemmedchem, 2020):

Tests used:
[1] = molecular target: T1, recombinant human meprin β (Homo sapiens, UniProt Q16820); experiment: meprin β inhibition, quenched fluorogenic peptide substrate assay; format: biochemical
T1 sequence (Q16820 62-701): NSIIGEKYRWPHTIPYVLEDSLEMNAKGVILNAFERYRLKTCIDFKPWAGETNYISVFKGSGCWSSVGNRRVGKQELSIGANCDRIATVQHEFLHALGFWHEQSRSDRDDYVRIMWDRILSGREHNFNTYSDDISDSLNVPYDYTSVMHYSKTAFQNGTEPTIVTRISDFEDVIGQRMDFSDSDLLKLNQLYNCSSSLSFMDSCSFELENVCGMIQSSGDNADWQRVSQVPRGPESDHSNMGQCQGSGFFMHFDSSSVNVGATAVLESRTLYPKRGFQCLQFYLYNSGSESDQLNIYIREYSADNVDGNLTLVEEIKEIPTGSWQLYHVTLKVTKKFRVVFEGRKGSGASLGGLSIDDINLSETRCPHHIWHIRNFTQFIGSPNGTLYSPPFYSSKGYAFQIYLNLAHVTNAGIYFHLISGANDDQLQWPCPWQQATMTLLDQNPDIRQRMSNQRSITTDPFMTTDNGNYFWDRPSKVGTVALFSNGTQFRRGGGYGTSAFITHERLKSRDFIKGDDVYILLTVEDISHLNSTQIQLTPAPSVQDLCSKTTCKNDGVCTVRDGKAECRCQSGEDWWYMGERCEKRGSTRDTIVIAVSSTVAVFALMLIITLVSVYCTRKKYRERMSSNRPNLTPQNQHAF

[2] = molecular target: T2, mouse ovastacin (Mus musculus, UniProt Q6HA09); experiment: ovastacin inhibition, fluorogenic enzyme activity assay
T2 sequence (Q6HA09 86-435 limits assumed): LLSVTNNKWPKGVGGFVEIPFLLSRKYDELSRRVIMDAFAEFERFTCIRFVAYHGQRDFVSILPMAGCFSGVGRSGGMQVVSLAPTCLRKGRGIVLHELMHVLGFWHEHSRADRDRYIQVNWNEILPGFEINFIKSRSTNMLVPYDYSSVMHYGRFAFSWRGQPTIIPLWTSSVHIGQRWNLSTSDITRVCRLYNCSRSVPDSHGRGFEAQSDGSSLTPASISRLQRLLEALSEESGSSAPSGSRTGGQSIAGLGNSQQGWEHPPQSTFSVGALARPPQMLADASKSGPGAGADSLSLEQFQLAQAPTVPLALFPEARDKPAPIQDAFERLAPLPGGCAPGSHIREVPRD

[3] = molecular target: T3, recombinant human meprin α (Homo sapiens, UniProt Q16819); experiment: meprin α inhibition, quenched fluorogenic peptide substrate assay; format: biochemical; settings: for SF: selectivity factor (K i app meprin β/K i app meprin α): meprin α over meprin β
T3 sequence (Q16819 66-746): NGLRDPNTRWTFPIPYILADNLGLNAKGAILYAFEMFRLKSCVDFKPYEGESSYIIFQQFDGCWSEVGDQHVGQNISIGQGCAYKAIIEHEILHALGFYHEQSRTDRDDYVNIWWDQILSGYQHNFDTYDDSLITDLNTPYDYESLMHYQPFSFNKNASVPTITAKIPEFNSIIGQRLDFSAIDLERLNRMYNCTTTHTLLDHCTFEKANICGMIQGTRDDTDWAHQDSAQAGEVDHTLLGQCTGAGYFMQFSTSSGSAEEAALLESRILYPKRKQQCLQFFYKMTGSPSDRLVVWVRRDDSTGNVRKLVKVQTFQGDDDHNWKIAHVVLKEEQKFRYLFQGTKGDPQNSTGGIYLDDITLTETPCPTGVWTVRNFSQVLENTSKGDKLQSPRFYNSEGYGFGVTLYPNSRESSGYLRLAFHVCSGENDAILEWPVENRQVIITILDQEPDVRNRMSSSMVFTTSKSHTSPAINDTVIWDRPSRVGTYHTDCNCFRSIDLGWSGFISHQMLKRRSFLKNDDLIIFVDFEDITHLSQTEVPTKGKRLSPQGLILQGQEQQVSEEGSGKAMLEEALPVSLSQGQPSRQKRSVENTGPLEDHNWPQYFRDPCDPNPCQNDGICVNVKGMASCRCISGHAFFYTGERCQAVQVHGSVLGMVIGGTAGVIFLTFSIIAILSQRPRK

[4] = molecular target: ADAM17 (Homo sapiens, UniProt P78536); experiment: off-target proteinase inhibition ADAM17; format: biochemical; settings: read-out: Relative enzyme activity ADAM17
[5] = molecular target: T4, ADAM10 (Homo sapiens, UniProt O14672); experiment: off-target proteinase inhibition ADAM10; format: biochemical; settings: read-out: Relative enzyme activity ADAM10
T4 sequence (O14672 214-748): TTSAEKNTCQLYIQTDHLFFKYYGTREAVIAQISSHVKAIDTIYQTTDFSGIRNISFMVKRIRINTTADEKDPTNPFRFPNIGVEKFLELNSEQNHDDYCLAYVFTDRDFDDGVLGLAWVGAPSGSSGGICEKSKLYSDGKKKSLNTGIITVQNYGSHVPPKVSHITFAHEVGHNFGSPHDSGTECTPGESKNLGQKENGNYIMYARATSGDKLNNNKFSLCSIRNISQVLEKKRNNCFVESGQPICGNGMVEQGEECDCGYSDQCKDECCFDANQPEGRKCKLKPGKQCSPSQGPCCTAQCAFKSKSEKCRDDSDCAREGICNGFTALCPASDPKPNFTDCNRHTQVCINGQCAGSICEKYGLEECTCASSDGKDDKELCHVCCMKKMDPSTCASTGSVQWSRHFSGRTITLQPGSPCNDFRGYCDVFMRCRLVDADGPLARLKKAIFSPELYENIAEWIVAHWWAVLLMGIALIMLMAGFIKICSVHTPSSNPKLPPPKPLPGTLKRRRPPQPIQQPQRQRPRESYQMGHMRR

[6] = molecular target: MMP13 (Homo sapiens, UniProt P45452); experiment: off-target proteinase inhibition MMP13; format: biochemical; settings: read-out: Relative enzyme activity MMP13
[7] = molecular target: T5, MMP2 (Homo sapiens, UniProt P08253); experiment: off-target proteinase inhibition MMP2; format: biochemical; settings: read-out: Relative enzyme activity MMP2
T5 sequence (P08253 110-660): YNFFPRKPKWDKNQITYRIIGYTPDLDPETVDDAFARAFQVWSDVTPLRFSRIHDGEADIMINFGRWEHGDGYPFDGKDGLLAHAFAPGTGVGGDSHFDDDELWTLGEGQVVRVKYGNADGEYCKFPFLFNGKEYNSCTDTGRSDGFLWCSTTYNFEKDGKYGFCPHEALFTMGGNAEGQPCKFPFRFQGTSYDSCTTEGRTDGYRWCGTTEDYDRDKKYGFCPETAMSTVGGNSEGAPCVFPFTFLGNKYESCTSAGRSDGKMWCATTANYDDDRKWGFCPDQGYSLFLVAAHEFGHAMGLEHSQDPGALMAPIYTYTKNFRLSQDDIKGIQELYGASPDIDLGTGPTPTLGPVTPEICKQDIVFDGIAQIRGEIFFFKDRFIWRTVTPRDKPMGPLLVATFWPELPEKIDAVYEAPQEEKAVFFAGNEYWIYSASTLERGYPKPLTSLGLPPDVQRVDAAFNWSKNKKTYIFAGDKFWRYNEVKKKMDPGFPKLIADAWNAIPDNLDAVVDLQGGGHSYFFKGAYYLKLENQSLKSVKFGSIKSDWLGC

[8] = molecular target: MMP9 (Homo sapiens, UniProt P14780); experiment: off-target proteinase inhibition MMP9; format: biochemical; settings: read-out: Relative enzyme activity MMP9
Chain of MMP9 (P14780 107-707 limits assumed): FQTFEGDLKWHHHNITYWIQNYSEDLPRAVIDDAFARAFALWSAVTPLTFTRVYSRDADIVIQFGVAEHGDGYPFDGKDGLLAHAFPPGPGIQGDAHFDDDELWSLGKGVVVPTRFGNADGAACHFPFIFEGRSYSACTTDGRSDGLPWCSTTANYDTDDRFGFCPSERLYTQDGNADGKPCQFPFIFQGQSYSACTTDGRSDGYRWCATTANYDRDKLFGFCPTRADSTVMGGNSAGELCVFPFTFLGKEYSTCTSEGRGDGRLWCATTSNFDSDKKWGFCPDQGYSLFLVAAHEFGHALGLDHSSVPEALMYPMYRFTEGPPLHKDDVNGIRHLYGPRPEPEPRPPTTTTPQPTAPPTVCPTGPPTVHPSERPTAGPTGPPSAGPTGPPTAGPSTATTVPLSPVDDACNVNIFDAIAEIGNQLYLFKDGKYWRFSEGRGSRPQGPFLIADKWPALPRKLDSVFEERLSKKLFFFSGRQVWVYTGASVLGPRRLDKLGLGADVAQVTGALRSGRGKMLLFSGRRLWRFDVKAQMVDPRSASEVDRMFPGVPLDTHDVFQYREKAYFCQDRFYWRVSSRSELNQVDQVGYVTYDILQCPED

Chain of ADAM17 (P78536 215-824): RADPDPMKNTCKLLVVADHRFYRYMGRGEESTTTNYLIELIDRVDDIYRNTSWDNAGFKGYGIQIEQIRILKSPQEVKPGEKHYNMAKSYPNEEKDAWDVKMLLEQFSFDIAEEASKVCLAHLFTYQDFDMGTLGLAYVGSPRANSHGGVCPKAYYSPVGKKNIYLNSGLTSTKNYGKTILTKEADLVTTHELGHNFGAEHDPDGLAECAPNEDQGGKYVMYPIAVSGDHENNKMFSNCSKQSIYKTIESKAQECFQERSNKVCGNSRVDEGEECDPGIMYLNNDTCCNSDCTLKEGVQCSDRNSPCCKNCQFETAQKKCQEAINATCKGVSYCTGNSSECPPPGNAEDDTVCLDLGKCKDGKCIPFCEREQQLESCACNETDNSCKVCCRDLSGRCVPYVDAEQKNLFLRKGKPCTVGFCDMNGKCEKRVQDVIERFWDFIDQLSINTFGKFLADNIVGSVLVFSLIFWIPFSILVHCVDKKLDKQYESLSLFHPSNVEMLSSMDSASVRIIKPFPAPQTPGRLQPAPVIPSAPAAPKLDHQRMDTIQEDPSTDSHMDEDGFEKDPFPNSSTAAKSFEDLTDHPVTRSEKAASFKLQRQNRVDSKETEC

SMILES	Ki [1]	Ki [2]	SF Meprin α: selectivity factor (K i app ovastacin/K i app meprin α) [2]	SF Meprin β: selectivity factor (K i app ovastacin/K i app meprin β) [2]	Ki [3]	SF: selectivity factor (K i app meprin β/K i app meprin α) [3]	also measured
O=C(CCn1c(-c2ccccc2)nnc1-c1ccccc1)NO [2 h, 3‐(3,5‐Diphenyl‐1,2,4‐triazol‐4‐yl)propanehydroxamic acid]	42300 nM	31800 nM	104	0.8	306 nM	138	–
O=C(CCn1c(-c2ccccc2)nc2ccccc21)NO [4 d, 3‐(2‐Phenylbenzimidazol‐1‐yl)propanehydroxamic acid]	27900 nM	9800 nM	9.5	0.4	1030 nM	27	–
O=C(Cc1c2ccccc2nn1-c1ccccc1)NO [4 h, 2‐(2‐Phenylindazol‐3‐yl)ethanehydroxamic acid]	3360 nM	–	–	–	273 nM	12	–
O=C(CCn1c(-c2ccccc2)cc2ccccc21)NO [4 b, 3‐(2‐Phenylindol‐1‐yl)propanehydroxamic acid]	17000 nM	1300 nM	3.1	0.1	414 nM	41	–
O=C(Cn1c(-c2ccccc2)cc2ccccc21)NO [4 a, 2‐(2‐Phenylindol‐1‐yl)ethanehydroxamic acid]	1080 nM	93 nM	1.3	0.1	69 nM	16	remaining activity at 10 µM [4]: 88%; remaining activity at 200 µM [4]: 56%; remaining activity at 10 µM [5]: 89%; remaining activity at 200 µM [5]: 68%; remaining activity at 10 µM [6]: 77%; remaining activity at 200 µM [6]: 54%; remaining activity at 10 µM [7]: 85%; remaining activity at 200 µM [7]: 41%; remaining activity at 10 µM [8]: 90%; remaining activity at 200 µM [8]: 53%
O=C(CCn1c(-c2ccccc2)ccc1-c1ccccc1)NO [2 b, 3‐(2,5‐Diphenylpyrrol‐1‐yl)propanehydroxamic acid]	15000 nM	–	–	–	736 nM	20	–
O=C(Cn1nc(-c2ccccc2)cc1-c1ccccc1)NO [3 a, 2‐(3,5‐Diphenylpyrazol‐1‐yl)ethanehydroxamic acid]	10400 nM	1050 nM	4	0.1	256 nM	41	–
O=C(Cn1c(-c2ccccc2)nc2cccnc21)NO [4 f, 2‐(2‐Phenylimidazo[4,5‐b]pyridin‐3‐yl)ethanehydroxamic acid]	4560 nM	–	–	–	262 nM	17	–
CCCCC[C@H](CC(=O)NO)C(=O)N[C@H](C(=O)N1CCC[C@H]1CO)C(C)C [Actinonin, reference compound]	219 nM	–	–	–	8 nM	27	–
O=C(Cn1c(-c2ccccc2)nc2ncccc21)NO [4 g, 2‐(2‐Phenylimidazo[4,5‐b]pyridin‐1‐yl)ethane‐hydroxamic acid]	4170 nM	–	–	–	1480 nM	3	–
O=C(Cn1c(-c2ccccc2)ccc1-c1ccccc1)NO [2 a, 2‐(2,5‐Diphenylpyrrol‐1‐yl)ethanehydroxamic acid]	4310 nM	–	–	–	20 nM	216	remaining activity at 10 µM [4]: 82%; remaining activity at 200 µM [4]: 25%; remaining activity at 10 µM [5]: 82%; remaining activity at 200 µM [5]: 29%; fold improvement in potency against meprin α compared to amine 1 d ([3]; compared to 1 d): ~400 fold; remaining activity at 10 µM [6]: 79%; remaining activity at 200 µM [6]: 5%; remaining activity at 10 µM [7]: 83%; remaining activity at 200 µM [7]: 1%; remaining activity at 10 µM [8]: 92%; remaining activity at 200 µM [8]: 1%
O=C(Cc1c(-c2ccccc2)nnn1-c1ccccc1)NO [2 j, 2‐(3,5‐Diphenyl‐1,2,3‐triazol‐4‐yl)ethanehydroxamic acid]	1450 nM	–	–	–	9 nM	161	–
O=C(CCn1nc(-c2ccccc2)cc1-c1ccccc1)NO [3 b, 3‐(3,5‐Diphenylpyrazol‐1‐yl)propanehydroxamic acid]	15400 nM	1100 nM	3	0.1	406 nM	38	–
O=C(Cc1c(-c2ccccc2)[nH]c2ccccc12)NO [4 e, 2‐(2‐Phenyl‐1H‐indol‐3‐yl)ethanehydroxamic acid]	1180 nM	–	–	–	82 nM	14	–
O=C(Cc1c(-c2ccccc2)ncn1-c1ccccc1)NO [2 i, 2‐(3,5‐Diphenylimidazol‐4‐yl)ethanehydroxamic acid]	443 nM	–	–	–	2 nM	222	–
